Measured values as given in US20050234248A1, “Method of producing preparations rich in tocotrienol” (Vis-Vitalis Lizenz- Und Handels Gmbh, priority 2002, published 2005).

Test system: human serum loaded with p-benzoquinone (quinhydron radicals)
Assay: Antioxidant capacity: human serum loaded with p-benzoquinone, colorimetric determination of p-dihydroquinone at 500 nm
Details: for Antiox-Titer: human serum, p-benzoquinone load, extinction at 500 nm/60 sec; for 1 mg of tocotrienol effect in μg radicals/ml · sec.: per 1 mg of tocotrienol; for Radicals μg/ml · sec: radicals inhibited, converted from extinction
Description: In this examining method, human serum is subjected to the oxidative stress of a defined amount of para-benzoquinone. By adding defined amounts of the antioxidants to be tested (natural tocotrienol mixture of wheat bran oil, wheat germ oil, tocopherol acetat, D-alpha-tocopherol), the antioxidant load bearing capacity of the test sample is quantitated by calorimetric determination of the para-dihydroquinone that has been reduced from para-benzoquinone. […] Human donor blood is recovered from the vein without any additives and centrifuged at 800-1000 g after having been left standing for 1 h in the refrigerator (approximately +4° C.-+7° C.). The separated serum fractions are removed and pooled. The serum can be stored at -22° C. for about 14 days or immediately be used for the required measurements. To determine the antioxidant capacity of an antioxidant, the serum is radically loaded in stages. p-Benzoquinone was used for radical formation. In a physiological environment (pH=slightly alkaline), this substance is converted into the relatively stable radical anion of the quinhydrone system. In doing so, one hydrogen atom (1 proton/1 electron) of p-benzoquinone is taken up. The further reaction to the stable end product p-dihydroquinone takes place inversely proportionally, at pH 6.9-7.4 within minutes, and primarily linearly to the antioxidant content (reducing agent) in the reaction environment. Thus, the conditions for the applicability of Lambert-Beer's law have been met for determining the end product (dihydro-quinone) as a typically coloured substance. The comparatively stable radical anion (quinhydrone) is converted into the dihydroquinone in a second reduction step by taking up a further electrone (hydrogen from the available antioxidants). […] The calorimetric determination of the amount of end product is effected at λ=500 nm. […] With a linear extinction increase-and a linearly growing consumption of the antioxidant-active substance, the reacted portions can be precisely calculated from the stoichiometric reaction conditions. According to Michaelis/[…] and Pauling, respectively (Holleman-Wiberg; Lehrbuch der Anorganischen Chemie, de Gruyter-Verlag (1995)), the reaction intensity up to the dihydroquinone will depend on the ratio of the concentrations of oxidised to reduced. I.e., the higher the reduction (antioxidant) supply, the more the reaction will be inhibited, the content of the dihydroquinone forming will decrease. Thus, this reaction is excellently suited to be used in redox systems for finely dosed quantitative determinations for substances that are reducingly active. In three parallel measurement series, serum samples ([…] each) of the pool with p-benzoquinone are loaded in three stages (10, 20 and 30 μg). […] In the calculated reaction quantities, the mean of the 60 second value corresponds to the defined titer (=one third reaction). This value precisely results from the graphic illustration of the mean values as extinction curve. All further tests with antioxidant addition are comparatively related to this defined calibration value of the serum pool without antioxidant addition (i.e., with an increasing supply of antioxidants in the serum, the extinction must drop for dihydroquinone). Three parallel measurement series of serum samples were carried out under addition of 500 μg/ml of preparation according to the invention to determine the antioxidant capacity of the tocotrienol-rich wheat bran oils according to the invention. […] Referring to the curve of the extinction values of the comparative serum without additions and the stoichiometric reaction conditions applied (serum determination/concentration of p-benzoquinone/amount per ml of serum dilution), the conversion factor extinction to radical inhibition will result from this calibration system. […] For a more encompassing evaluation of the product quality, the comparison with other antioxidants is required. […]

SMILES	Antiox-Titer	1 mg of tocotrienol effect in μg radicals/ml · sec. [μg radicals/ml · sec.]	Radicals μg/ml · sec [μg/ml · sec]
Cc1c(C)c2c(c(C)c1O)CC[C@@](C)(CCC[C@H](C)CCC[C@H](C)CCCC(C)C)O2 [D-alpha-Tocopherol, D-alpha-tocopherol]	0.06	0.00674	1.6848
CC(=O)Oc1c(C)c(C)c2c(c1C)CCC(C)(CCC[C@H](C)CCC[C@H](C)CCCC(C)C)O2 (stereo partly drawn) [Tocopherol acetate, D,L-alpha-tocopherol acetate]	0.125	0.014	3.51
